Data as given in PubChem BioAssay AID1117285 (Broad Institute, 2014).
Inconclusive results are not listed. Each block holds one compound with its values, some of them ahead of it. The source made the active and inactive calls.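 How the source made its calls: active means called active in every replicate test, with a falling signal and AC50 within twice the top valid dose; inconclusive means replicate tests disagree in their calls; inactive means inactive in every replicate test, including a rising signal.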

Molecular target: Leucyl-cystinyl aminopeptidase (Mus musculus) (UniProt Q8C129)
Sequence (Q8C129 whole entry, looked up): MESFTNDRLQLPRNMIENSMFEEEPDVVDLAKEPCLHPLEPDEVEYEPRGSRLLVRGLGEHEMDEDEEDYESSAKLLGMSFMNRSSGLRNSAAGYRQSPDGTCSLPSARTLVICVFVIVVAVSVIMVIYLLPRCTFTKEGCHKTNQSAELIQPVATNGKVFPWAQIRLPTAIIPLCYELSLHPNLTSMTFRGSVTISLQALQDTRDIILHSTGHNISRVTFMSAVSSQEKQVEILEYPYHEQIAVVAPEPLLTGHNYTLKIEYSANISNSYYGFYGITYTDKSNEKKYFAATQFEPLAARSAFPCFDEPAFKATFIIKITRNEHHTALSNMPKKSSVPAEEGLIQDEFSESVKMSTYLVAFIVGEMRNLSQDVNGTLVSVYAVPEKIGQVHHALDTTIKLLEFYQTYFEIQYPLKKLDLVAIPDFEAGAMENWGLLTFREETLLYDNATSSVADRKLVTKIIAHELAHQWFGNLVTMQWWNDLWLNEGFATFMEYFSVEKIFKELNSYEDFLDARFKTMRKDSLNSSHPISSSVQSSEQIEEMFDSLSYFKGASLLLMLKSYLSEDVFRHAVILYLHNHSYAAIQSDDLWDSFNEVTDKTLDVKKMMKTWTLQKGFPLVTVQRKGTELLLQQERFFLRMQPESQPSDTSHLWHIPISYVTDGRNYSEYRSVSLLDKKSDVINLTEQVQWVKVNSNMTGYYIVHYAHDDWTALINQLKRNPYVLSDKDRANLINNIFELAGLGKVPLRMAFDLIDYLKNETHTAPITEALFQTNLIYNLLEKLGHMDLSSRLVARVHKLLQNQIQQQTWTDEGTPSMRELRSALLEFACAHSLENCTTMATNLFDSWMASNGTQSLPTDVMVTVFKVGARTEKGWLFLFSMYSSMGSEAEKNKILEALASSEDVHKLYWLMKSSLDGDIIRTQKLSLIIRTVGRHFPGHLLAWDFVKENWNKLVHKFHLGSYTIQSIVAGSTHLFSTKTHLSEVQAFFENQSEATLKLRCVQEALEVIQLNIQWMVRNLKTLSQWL
Assay: IRAP inhibitors, dose response, selectivity assay for ERAP1 modulator project, biochemical, dry powder samples, set 2 (AID 1117285)
Conditions: purified IRAP, Leu-AMC hydrolysis fluorescence, 1 h

Compound: O=S(=O)(Nc1cc(C(F)(F)F)ccc1N1CCCCC1)c1ccc(C(F)(F)F)cc1
max activity % (lower = more inhibition) (at 3 µM): inactive

Compound: COC(=O)c1ccc(OC)c(S(=O)(=O)Nc2cc(C(F)(F)F)ccc2N2CCCCC2)c1
max activity % (lower = more inhibition): inactive

Compound: COc1ccc(C(=O)O)cc1S(=O)(=O)Nc1cc(C)ccc1N1CCCCC1
max activity % (lower = more inhibition): inactive

Compound: O=C(Nc1cc(C(F)(F)F)ccc1N1CCCCC1)c1ccc(S(=O)(=O)O)cc1
max activity % (lower = more inhibition) (at 50 µM): inactive

Compound: COc1ccc(C(=O)Nc2ccccc2N2CCCCC2)cc1S(=O)(=O)O
max activity % (lower = more inhibition) (at 50 µM): inactive

Compound: COc1ccc(C(=O)Nc2cccc(C(F)(F)F)c2)cc1S(=O)(=O)O
max activity % (lower = more inhibition) (at 50 µM): inactive

Compound: O=S(=O)(Nc1cc(C(F)(F)F)ccc1N1CCCCC1)c1ccc(Cl)cc1
max activity % (lower = more inhibition) (at 0.8 µM): inactive

Compound: O=S(=O)(Nc1cc(C(F)(F)F)ccc1N1CCCCC1)c1ccc(Br)cc1
max activity % (lower = more inhibition) (at 3 µM): inactive

Compound: O=S(=O)(Nc1cc(C(F)(F)F)ccc1N1CCCCC1)c1ccc(-c2ccccc2)cc1
max activity % (lower = more inhibition) (at 3 µM): inactive

Compound: O=[N+]([O-])c1ccc(S(=O)(=O)Nc2cc(C(F)(F)F)ccc2N2CCCCC2)c([N+](=O)[O-])c1
max activity % (lower = more inhibition) (at 0.8 µM): inactive

Compound: COc1ccc(S(=O)(=O)Nc2cc(C(F)(F)F)ccc2N2CCCCC2)cc1
max activity % (lower = more inhibition) (at 0.195 µM): inactive

Compound: COC(=O)[C@H](CCCCN)NC(=O)c1ccc(N)c(NC(=O)[C@@H](N)CCc2ccccc2)c1
AC50: > 100 µM (inactive)

Compound: COc1ccc(C(=O)O)cc1S(=O)(=O)Nc1cc(C(F)(F)F)ccc1N1CCCCC1
max activity % (lower = more inhibition): inactive

Compound: Cc1ccccc1S(=O)(=O)Nc1cc(C(F)(F)F)ccc1N1CCCCC1
max activity % (lower = more inhibition) (at 0.195 µM): inactive

Compound: COc1ccc(C(=O)Nc2cc(C(F)(F)F)ccc2N2CCCCC2)cc1S(=O)(=O)O
max activity % (lower = more inhibition) (at 50 µM): inactive

Compound: O=S(=O)(Nc1cc(C(F)(F)F)ccc1N1CCCCC1)c1ccc(F)cc1
max activity % (lower = more inhibition) (at 0.195 µM): inactive

Compound: COc1ccc(C(=O)O)cc1S(=O)(=O)Nc1ccccc1N1CCCCC1
max activity % (lower = more inhibition): inactive

Compound: COc1ccc(C(=O)O)cc1S(=O)(=O)Nc1cc(C(F)(F)F)ccc1N1CCOCC1
max activity % (lower = more inhibition): inactive

Compound: N#Cc1ccc(S(=O)(=O)Nc2cc(C(F)(F)F)ccc2N2CCCCC2)cc1
max activity % (lower = more inhibition) (at 0.8 µM): inactive

Compound: COc1ccc(C(=O)Nc2cc(C(F)(F)F)ccc2N2CCOCC2)cc1S(=O)(=O)O
max activity % (lower = more inhibition) (at 0.1 µM): inactive

Compound: O=[N+]([O-])c1cccc(S(=O)(=O)Nc2cc(C(F)(F)F)ccc2N2CCCCC2)c1
max activity % (lower = more inhibition) (at 0.195 µM): inactive

Compound: COc1ccc(C(=O)Nc2cc(F)ccc2N2CCCCC2)cc1S(=O)(=O)O
max activity % (lower = more inhibition) (at 50 µM): inactive

Compound: COc1ccc(C(=O)O)cc1S(=O)(=O)Nc1cc(F)ccc1N1CCCCC1
max activity % (lower = more inhibition): inactive

Compound: O=S(=O)(Nc1cc(C(F)(F)F)ccc1N1CCCCC1)c1cc(Cl)cc(Cl)c1
max activity % (lower = more inhibition) (at 0.38 µM): inactive

Compound: COc1ccc(C(=O)O)cc1S(=O)(=O)Nc1cc(C(F)(F)F)ccc1N(C)C
max activity % (lower = more inhibition): inactive

Compound: Cn1cnc(S(=O)(=O)Nc2cc(C(F)(F)F)ccc2N2CCCCC2)c1
max activity % (lower = more inhibition) (at 0.8 µM): inactive

Compound: O=S(=O)(Nc1cc(C(F)(F)F)ccc1N1CCCCC1)c1ccccc1
max activity % (lower = more inhibition) (at 0.195 µM): inactive

Compound: COc1ccc(C(=O)Nc2cc(C(F)(F)F)ccc2N2CCCC2)cc1S(=O)(=O)O
max activity % (lower = more inhibition) (at 0.195 µM): inactive

Compound: NC(=NCCc1c[nH]c2ccccc12)NS(=O)(=O)c1cc(F)ccc1F
max activity % (lower = more inhibition) (at 0.195 µM): inactive

Compound: COc1ccc(C(=O)Nc2cc(C)ccc2N2CCCCC2)cc1S(=O)(=O)O
max activity % (lower = more inhibition) (at 50 µM): inactive

Now from value to compound:

max activity % (lower = more inhibition) (at 0.1 µM): inactive
Compound: Cc1ccc(NC(=O)NC2(C(=O)N3CCOCC3)CCCCC2)cc1

max activity % (lower = more inhibition) (at 0.195 µM): inactive
Compound: CC(=O)N1CCN(C(=O)C2(NC(=O)Nc3ccc(C(C)C)cc3)CCCC2)CC1

max activity % (lower = more inhibition) (at 0.38 µM): inactive
Compound: CC(=O)N1CCN(C(=O)C2(NC(=O)Nc3ccc(C(C)C)cc3)CCCCC2)CC1

max activity % (lower = more inhibition) (at 0.1 µM): inactive
Compound: CC(=O)N1CCN(C(=O)C2(NC(=O)NC(C)(C)C)CCCCC2)CC1

max activity % (lower = more inhibition) (at 0.38 µM): inactive
Compound: Cc1ccc(NC(=O)NC2(C(=O)N3CCN(c4ccccc4)CC3)CCCCC2)cc1

max activity % (lower = more inhibition) (at 0.195 µM): inactive
Compound: CC(=O)N1CCN(C(=O)C2(NC(=O)Nc3ccccc3C(F)(F)F)CCCCC2)CC1

AC50: > 100 µM (inactive)
Compound: CC(=O)N1CCN(C(=O)[C@@H]2CCN2C(=O)Nc2ccc(C)cc2)CC1

max activity % (lower = more inhibition) (at 0.1 µM): inactive
Compound: CC(=O)N1CCN(C(=O)C2(NC(=O)Nc3ccc(Cl)cc3)CCCCC2)CC1

max activity % (lower = more inhibition) (at 0.195 µM): inactive
Compound: CC(=O)N1CCN(C(=O)C2(NC(=O)Nc3ccccc3)CCCC2)CC1

max activity % (lower = more inhibition) (at 12 µM): inactive
Compound: COc1ccc(NC(=O)NC2(C(=O)N3CCN(C(C)=O)CC3)CCCCC2)cc1

max activity % (lower = more inhibition) (at 0.1 µM): inactive
Compound: CC(=O)N1CCN(C(=O)CNC(=O)Nc2ccc(C)cc2)CC1

max activity % (lower = more inhibition) (at 0.1 µM): inactive
Compound: CC(=O)N1CCN(C(=O)C2(NC(=O)Nc3ccc(C)cc3)CCCCC2)CC1

max activity % (lower = more inhibition) (at 0.195 µM): inactive
Compound: CC(=O)N1CCN(C(=O)C2CCCN2C(=O)Nc2ccc(C)cc2)CC1 (stereo not given)

max activity % (lower = more inhibition) (at 0.195 µM): inactive
Compound: CC(=O)N1CCN(C(=O)C2(NC(=O)Nc3ccc(C(F)(F)F)cc3)CCCCC2)CC1

max activity % (lower = more inhibition) (at 0.8 µM): inactive | max activity % (lower = more inhibition) (at 50 µM): inactive
Compound: CC(=O)N1CCN(C(=O)C2(NC(=O)Nc3ccccc3F)CCCCC2)CC1

max activity % (lower = more inhibition) (at 0.1 µM): inactive
Compound: CC(=O)N1CCN(C(=O)C2(NC(=O)Nc3ccc(C(F)(F)F)cc3)CCCC2)CC1

max activity % (lower = more inhibition) (at 50 µM): inactive
Compound: CC(=O)N1CCN(C(=O)C(C)(C)NC(=O)Nc2ccc(C)cc2)CC1

max activity % (lower = more inhibition) (at 50 µM): inactive
Compound: CC(=O)N1CCN(C(=O)C2(NC(=O)Nc3ccc(F)cc3)CCCCC2)CC1

max activity % (lower = more inhibition) (at 50 µM): inactive
Compound: CC(=O)N1CCN(C(=O)C2(NC(=O)Nc3ccccc3)CCCCC2)CC1

max activity % (lower = more inhibition) (at 12 µM): inactive
Compound: COc1cccc(NC(=O)NC2(C(=O)N3CCN(C(C)=O)CC3)CCCCC2)c1

max activity % (lower = more inhibition) (at 50 µM): inactive
Compound: CC(=O)N1CCN(C(=O)C2(NC(=O)NCCc3ccccc3)CCCCC2)CC1

max activity % (lower = more inhibition) (at 0.195 µM): inactive
Compound: CC(=O)N1CCN(C(=O)C2(NC(=O)Nc3cccc(F)c3)CCCCC2)CC1

max activity % (lower = more inhibition) (at 0.38 µM): inactive
Compound: CC(=O)N1CCN(C(=O)C2(NC(=O)Nc3cccc(C(F)(F)F)c3)CCCCC2)CC1

max activity % (lower = more inhibition) (at 3 µM): inactive
Compound: CC(=O)N1CCN(C(=O)C2(NC(=O)Nc3ccc(F)cc3)CCCC2)CC1
